This note sets out measurements from US11345711B2, “8,9-dihydroimidazo[1,2-a]pyrimido[5,4-e]pyrimidin-5(6H)-ones” (IMPACT THERAPEUTICS (SHANGHAI), INC, priority 2016, dated 2022).

Where two headings read alike, the source gives them in different places.

For one assay, the target named is Wee1 (h) (Homo sapiens, UniProt P30291). In words: Wee1 kinase (h) detection method, [γ-33P]-ATP filter assay. In kind it is biochemical.
Another assay concerns LoVo cells. In words: MTT based cell viability assay on LoVo cells. Particulars: for IC50: Homo sapiens, LoVo, 72 h, 3 d, read-out: IC50, growth inhibition of LoVo cells. In a few lines:
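Inhibition of LoVo proliferation was derived as IC50 from a sigmoidal dose-response fit of cell survival. Readout was MTT (0.5 mg/mL, 4 h) with absorbance at 552/630/690 nm, after 3-day treatment at 37 °C. Eight-point series from 10 μM to 0.01 μM, DMSO control, 1% DMSO final.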

The next assay relates to NCI-H1299 cells. As to the kind of experiment: MTT based cell viability assay on NCI-H1299 cells. As to conditions: for IC50: read-out: IC50, growth inhibition of NCI-H1299 cells. Summed up: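 Viability read-out was MTT reduction (0.5 mg/mL, 4 h, absorbance 552/630/690 nm) after 3-day compound exposure at 37 °C of NCI-H1299 cells seeded at 1000 per well. Dilutions spanned 10 μM–0.01 μM in DMSO, final DMSO 1‰. Survival-versus-concentration curves were fitted sigmoidally to give IC50.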

Setting [1] is: Homo sapiens, NCI-H1299, NCI-H1299 cells.

Chain of Wee1 (h) (P30291 whole entry): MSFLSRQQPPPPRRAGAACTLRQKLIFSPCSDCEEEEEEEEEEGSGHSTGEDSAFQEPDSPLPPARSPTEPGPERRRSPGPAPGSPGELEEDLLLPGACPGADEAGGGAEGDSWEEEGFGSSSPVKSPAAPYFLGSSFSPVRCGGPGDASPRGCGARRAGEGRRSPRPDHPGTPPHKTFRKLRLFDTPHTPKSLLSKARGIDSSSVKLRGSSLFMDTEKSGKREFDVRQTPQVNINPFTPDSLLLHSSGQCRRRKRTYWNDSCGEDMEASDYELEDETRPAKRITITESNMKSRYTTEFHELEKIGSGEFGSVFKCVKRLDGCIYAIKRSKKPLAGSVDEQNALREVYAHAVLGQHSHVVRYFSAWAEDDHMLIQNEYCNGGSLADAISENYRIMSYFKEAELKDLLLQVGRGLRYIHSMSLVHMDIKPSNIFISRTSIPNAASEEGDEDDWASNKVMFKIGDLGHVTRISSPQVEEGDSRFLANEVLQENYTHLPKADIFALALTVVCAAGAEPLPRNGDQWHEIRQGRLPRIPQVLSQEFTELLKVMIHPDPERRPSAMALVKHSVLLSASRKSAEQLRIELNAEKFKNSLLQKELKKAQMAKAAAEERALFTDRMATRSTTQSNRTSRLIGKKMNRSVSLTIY

The term IC50 denotes the concentration that inhibits the measured activity by half. As to `CC(C)N1CCN(c2ccc(Nc3ncc4c(n3)N3CCN=C3N(c3c(Cl)cccc3Cl)C4=O)cc2)CC1` [Example 63, 6-(2,6-Dichlorophenyl)-2-((4-(4-isopropylpiperazin-1-yl)phenyl)amino)-8,9-dihydroimidazo[1,2-a]pyrimido[5,4-e]pyrimidin-5(6H)-one], the “Inh. (%) of Wee1 kinase enzyme activity” value is given as 17% on Wee1 (h) (C 0.01 μm compound), 76% at Wee1 (h) (C 0.1 μm compound) and 99% at Wee1 (h) (C 1 μm compound). Besides, the IC50 in the assay on LoVo cells is 0.0768 µM; with NCI-H1299 cells (Homo sapiens, NCI-H1299 cells), 0.36 µM.
As for `C[C@@H]1CN(c2ccc(Nc3ncc4c(n3)N3CCN=C3N(c3c(Cl)cccc3Cl)C4=O)cc2)C[C@H](C)N1C` [Example 64, 6-(2,6-Dichlorophenyl)-2-((4-((3S,5R)-3,4,5-trimethylpiperazin-1-yl)phenyl)amino)-8,9-dihydroimidazo[1,2-a]pyrimido[5,4-e]pyrimidin-5(6H)-one], the “Inh. (%) of Wee1 kinase enzyme activity” value at Wee1 (h) (C 0.01 μm compound) was 52%; at Wee1 (h) (C 0.1 μm compound), 88%; at Wee1 (h) (C 1 μm compound) it was 100%. Further, the IC50 in the assay with LoVo cells is 0.0965 µM; in the assay with NCI-H1299 cells (Homo sapiens, NCI-H1299 cells) it was 0.177 µM.
For `CC(C)N1[C@H](C)CN(c2ccc(Nc3ncc4c(n3)N3CCN=C3N(c3c(Cl)cccc3Cl)C4=O)cc2)C[C@@H]1C` [Example 65, 6-(2,6-Dichlorophenyl)-2-((4-((3S,5R)-4-isopropyl-3,5-dimethylpiperazin-1-yl)phenyl)amino)-8,9-dihydroimidazo[1,2-a]pyrimido[5,4-e]pyrimidin-5(6H)-one] the same measures were 18%, 68%, 98%, 0.103 µM and 0.405 µM.
With `C[C@@H]1CN(c2ccc(Nc3ncc4c(n3)N3CCN=C3N(c3c(Cl)cccc3Cl)C4=O)c(F)c2)C[C@H](C)N1C` [Example 66, 6-(2,6-Dichlorophenyl)-2-((2-fluoro-4-((3S,5R)-3,4,5-trimethylpiperazin-1-yl)phenyl)amino)-8,9-dihydroimidazo[1,2-a]pyrimido[5,4-e]pyrimidin-5(6H)-one], the “Inh. (%) of Wee1 kinase enzyme activity” value at Wee1 (h) (C 1 μm compound) is 0%. The IC50 is above 100 µM with LoVo cells and above 10 µM in the assay with NCI-H1299 cells (Homo sapiens, NCI-H1299 cells).
The like results for `C[C@@H]1CN(c2ccc(Nc3ncc4c(n3)N3CCN=C3N(c3c(Cl)cccc3Cl)C4=O)c(Cl)c2)C[C@H](C)N1C` [Example 67, 6-(2,6-Dichlorophenyl)-2-((2-chloro-4-((3S,5R)-3,4,5-trimethylpiperazin-1-yl)phenyl)amino)-8,9-dihydroimidazo[1,2-a]pyrimido[5,4-e]pyrimidin-5(6H)-one] were, in that order, 24%, above 100 µM and above 10 µM.
For `C[C@@H]1CN(c2ccc(Nc3ncc4c(n3)N3CCN=C3N(c3c(Cl)cccc3Cl)C4=O)c(C(F)(F)F)c2)C[C@H](C)N1C` [Example 68, 6-(2,6-Dichlorophenyl)-2-((2-trifluoromethyl-4-((3S,5R)-3,4,5-trimethylpiperazin-1-yl)phenyl)amino)-8,9-dihydroimidazo[1,2-a]pyrimido[5,4-e]pyrimidin-5(6H)-one] the same measures were 6%, above 100 µM and above 10 µM.
For `CN1CCN(c2ccc(Nc3ncc4c(n3)N3CCN=C3N(c3c(Cl)cccc3Cl)C4=O)cc2F)CC1` [Example 69, 6-(2,6-Dichlorophenyl)-2-((3-fluoro-4-(4-methylpiperazin-1-yl)phenyl)amino)-8,9-dihydroimidazo[1,2-a]pyrimido[5,4-e]pyrimidin-5(6H)-one], the “Inh. (%) of Wee1 kinase enzyme activity” value on Wee1 (h) (C 0.01 μm compound) amounted to 24%; at Wee1 (h) (C 0.1 μm compound) it was 73%; at Wee1 (h) (C 1 μm compound), 97%. The values for the IC50 with LoVo cells and in the assay on NCI-H1299 cells (setting [1]) were 0.105 µM and 0.426 µM, respectively.
As to `C[C@@H]1CN(c2ccc(Nc3ncc4c(n3)N3CCN=C3N(c3c(Cl)cccc3Cl)C4=O)cc2F)C[C@H](C)N1C` [Example 70, 6-(2,6-Dichlorophenyl)-2-((3-fluoro-4-((3S,5R)-3,4,5-trimethylpiperazin-1-yl)phenyl)amino)-8,9-dihydroimidazo[1,2-a]pyrimido[5,4-e]pyrimidin-5(6H)-one], the “Inh. (%) of Wee1 kinase enzyme activity” value at Wee1 (h) (C 0.01 μm compound) came to 17%; on Wee1 (h) (C 0.1 μm compound), 69%; on Wee1 (h) (C 1 μm compound), 99%. Besides, the IC50 in the assay on LoVo cells came to 0.124 µM; in the assay with NCI-H1299 cells (setting [1]), 0.448 µM.
For the compound `CN1CCN(c2ccc(Nc3ncc4c(n3)N3CCN=C3N(c3c(Cl)cccc3Cl)C4=O)cc2Cl)CC1` [Example 71, 2-((3-chloro-4-(4-methylpiperazin-1-yl)phenyl)amino)-6-(2,6-dichlorophenyl)-8,9-dihydroimidazo[1,2-a]pyrimido[5,4-e]pyrimidin-5(6H)-one], the “Inh. (%) of Wee1 kinase enzyme activity” value at Wee1 (h) (C 0.01 μm compound) came out at 36%; at Wee1 (h) (C 0.1 μm compound), 74%; on Wee1 (h) (C 1 μm compound), 98%. Moreover, the concentration for half-maximal inhibition (IC50) in the assay with LoVo cells worked out at 0.0443 µM; in the assay with NCI-H1299 cells (NCI-H1299 cells), 0.603 µM.
Take `C[C@@H]1CN(c2ccc(Nc3ncc4c(n3)N3CCN=C3N(c3c(Cl)cccc3Cl)C4=O)cc2Cl)C[C@H](C)N1C` [Example 72, 6-(2,6-Dichlorophenyl)-2-((3-chloro-4-((3S,5R)-3,4,5-trimethylpiperazin-1-yl)phenyl)amino)-8,9-dihydroimidazo[1,2-a]pyrimido[5,4-e]pyrimidin-5(6H)-one]: the “Inh. (%) of Wee1 kinase enzyme activity” value at Wee1 (h) (C 0.01 μm compound) amounted to 22%; on Wee1 (h) (C 0.1 μm compound), 75%; at Wee1 (h) (C 1 μm compound), 97%. Further, the IC50 with LoVo cells was 0.0592 µM; in the assay with NCI-H1299 cells (Homo sapiens, NCI-H1299 cells), 0.328 µM.
Take `CN1CCN(c2ccc(Nc3ncc4c(n3)N3CCN=C3N(c3c(Cl)cccc3Cl)C4=O)cc2C(F)(F)F)CC1` [Example 73, 6-(2,6-Dichlorophenyl)-2-((4-(4-methylpiperazin-1-yl)-3-(trifluoromethyl)phenyl)amino)-8,9-dihydroimidazo[1,2-a]pyrimido[5,4-e]pyrimidin-5(6H)-one]: the “Inh. (%) of Wee1 kinase enzyme activity” value on Wee1 (h) (C 1 μm compound) worked out at 83%. Further, the half-maximal inhibitory concentration (IC50) was found to be 0.194 µM in the assay with LoVo cells and 1.43 µM in the assay with NCI-H1299 cells (setting [1]).
Regarding `C[C@@H]1CN(c2ccc(Nc3ncc4c(n3)N3CCN=C3N(c3c(Cl)cccc3Cl)C4=O)cc2C(F)(F)F)C[C@H](C)N1C` [Example 74, 6-(2,6-Dichlorophenyl)-2-((3-trifluoromethyl-4-((3S,5R)-3,4,5-trimethylpiperazin-1-yl)phenyl)amino)-8,9-dihydroimidazo[1,2-a]pyrimido[5,4-e]pyrimidin-5(6H)-one], the “Inh. (%) of Wee1 kinase enzyme activity” value on Wee1 (h) (C 0.01 μm compound) came out at 15%; on Wee1 (h) (C 0.1 μm compound) it was 61%; at Wee1 (h) (C 1 μm compound) it was 98%. In addition, the IC50 amounted to 0.182 µM in the assay with LoVo cells and 0.708 µM with NCI-H1299 cells (setting [1]).
Regarding `Cc1cc(Nc2ncc3c(n2)N2CCN=C2N(c2c(Cl)cccc2Cl)C3=O)ccc1N1CCN(C)CC1` [Example 75, 6-(2,6-Dichlorophenyl)-2-((3-methyl-4-(4-methylpiperazin-1-yl)phenyl)amino)-8,9-dihydroimidazo[1,2-a]pyrimido[5,4-e]pyrimidin-5(6H)-one], the entries for the “Inh. (%) of Wee1 kinase enzyme activity” value on Wee1 (h) (C 0.01 μm compound), at Wee1 (h) (C 0.1 μm compound) and on Wee1 (h) (C 1 μm compound) were 24%, 80% and 100%, respectively. In the assay with LoVo cells, the “inhibitory effect on the growth of LoVo cells compared with AZD1775” value is listed as “stronger inhibitory effect on the growth of LoVo cells than AZD1775”. For the same compound, the figures for the IC50 with LoVo cells and with NCI-H1299 cells (setting [1]) were 0.0402 µM and 0.161 µM, respectively. Besides, in the assay with NCI-H1299 cells, the “inhibitory effect on the growth of NCI-H1299 cells compared with AZD1775” value was “stronger inhibitory effect on the growth of NCI-H1299 cells than AZD1775”.
`Cc1cc(Nc2ncc3c(n2)N2CCN=C2N(c2c(Cl)cccc2Cl)C3=O)ccc1N1CCN(C(C)C)CC1` [Example 76, 6-(2,6-Dichlorophenyl)-2-((4-(4-isopropylpiperazin-1-yl)-3-methylphenyl)amino)-8,9-dihydroimidazo[1,2-a]pyrimido[5,4-e]pyrimidin-5(6H)-one]: the “Inh. (%) of Wee1 kinase enzyme activity” value was found to be 22% at Wee1 (h) (C 0.01 μm compound), 74% at Wee1 (h) (C 0.1 μm compound) and 97% at Wee1 (h) (C 1 μm compound). The results for the IC50 with LoVo cells and in the assay on NCI-H1299 cells (setting [1]) were 0.0488 µM and 0.198 µM, respectively.
The like results for `Cc1cc(Nc2ncc3c(n2)N2CCN=C2N(c2c(Cl)cccc2Cl)C3=O)ccc1N1C[C@@H](C)N(C)[C@@H](C)C1` [Example 77, 6-(2,6-Dichlorophenyl)-2-((3-methyl-4-((3S,5R)-3,4,5-trimethylpiperazin-1-yl)phenyl)amino)-8,9-dihydroimidazo[1,2-a]pyrimido[5,4-e]pyrimidin-5(6H)-one] were, in that order, 11%, 86%, 88%, 0.0524 µM and 0.217 µM.
For `Cc1cc(Nc2ncc3c(n2)N2CCN=C2N(c2c(Cl)cccc2Cl)C3=O)ccc1N1C[C@@H](C)N(C(C)C)[C@@H](C)C1` [Example 78, 6-(2,6-Dichlorophenyl)-2-((4-((3S,5R)-4-isopropyl-3,5-dimethylpiperazin-1-yl)-3-methylphenyl)amino)-8,9-dihydroimidazo[1,2-a]pyrimido[5,4-e]pyrimidin-5(6H)-one] the same measures were 29%, 77%, 100%, 0.0414 µM and 0.149 µM.
